Laboratory results reported in ChEMBL document CHEMBL2380230, “Potency switch between CHK1 and MK2: discovery of imidazo[1,2-a]pyrazine- and imidazo[1,2-c]pyrimidine-based kinase inhibitors” (Bioorg Med Chem Lett, 2013).

Columns and labels:
[1] = target: T1, Serine/threonine-protein kinase Chk1 (Homo sapiens, UniProt O14757); test: Inhibition of CHK1 (unknown origin)
T1 sequence (O14757 whole entry): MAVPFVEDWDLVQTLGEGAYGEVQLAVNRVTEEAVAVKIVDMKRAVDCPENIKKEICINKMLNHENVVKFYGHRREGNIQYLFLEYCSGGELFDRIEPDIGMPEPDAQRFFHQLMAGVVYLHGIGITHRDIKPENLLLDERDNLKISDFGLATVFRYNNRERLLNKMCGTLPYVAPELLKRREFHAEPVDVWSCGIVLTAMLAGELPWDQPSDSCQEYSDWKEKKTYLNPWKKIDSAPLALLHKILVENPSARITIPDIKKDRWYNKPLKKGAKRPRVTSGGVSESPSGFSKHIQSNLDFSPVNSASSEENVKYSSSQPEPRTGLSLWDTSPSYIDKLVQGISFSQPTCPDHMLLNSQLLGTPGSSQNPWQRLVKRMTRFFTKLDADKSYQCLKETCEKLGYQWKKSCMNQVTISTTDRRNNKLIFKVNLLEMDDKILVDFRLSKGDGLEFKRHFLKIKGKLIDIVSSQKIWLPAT

[2] = target: T2, MAP kinase-activated protein kinase 2 (Homo sapiens, UniProt P49137); test: Inhibition of human recombinant MK2
Target sequence in this assay (P49137 whole entry): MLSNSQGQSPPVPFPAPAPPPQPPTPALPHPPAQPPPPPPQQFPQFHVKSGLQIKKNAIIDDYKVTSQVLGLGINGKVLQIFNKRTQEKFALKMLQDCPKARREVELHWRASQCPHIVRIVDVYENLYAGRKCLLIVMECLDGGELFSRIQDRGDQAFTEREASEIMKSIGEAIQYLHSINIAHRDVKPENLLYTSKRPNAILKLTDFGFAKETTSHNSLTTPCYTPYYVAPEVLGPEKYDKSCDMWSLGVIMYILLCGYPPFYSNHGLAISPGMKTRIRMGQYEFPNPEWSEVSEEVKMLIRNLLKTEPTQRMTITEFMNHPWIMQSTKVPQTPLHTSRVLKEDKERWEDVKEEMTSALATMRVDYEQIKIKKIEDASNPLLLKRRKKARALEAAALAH

[3] = target: T3, Inhibitor of nuclear factor kappa-B kinase subunit beta (Homo sapiens, UniProt O14920); test: Inhibition of human IKKB
T3 sequence (O14920 whole entry): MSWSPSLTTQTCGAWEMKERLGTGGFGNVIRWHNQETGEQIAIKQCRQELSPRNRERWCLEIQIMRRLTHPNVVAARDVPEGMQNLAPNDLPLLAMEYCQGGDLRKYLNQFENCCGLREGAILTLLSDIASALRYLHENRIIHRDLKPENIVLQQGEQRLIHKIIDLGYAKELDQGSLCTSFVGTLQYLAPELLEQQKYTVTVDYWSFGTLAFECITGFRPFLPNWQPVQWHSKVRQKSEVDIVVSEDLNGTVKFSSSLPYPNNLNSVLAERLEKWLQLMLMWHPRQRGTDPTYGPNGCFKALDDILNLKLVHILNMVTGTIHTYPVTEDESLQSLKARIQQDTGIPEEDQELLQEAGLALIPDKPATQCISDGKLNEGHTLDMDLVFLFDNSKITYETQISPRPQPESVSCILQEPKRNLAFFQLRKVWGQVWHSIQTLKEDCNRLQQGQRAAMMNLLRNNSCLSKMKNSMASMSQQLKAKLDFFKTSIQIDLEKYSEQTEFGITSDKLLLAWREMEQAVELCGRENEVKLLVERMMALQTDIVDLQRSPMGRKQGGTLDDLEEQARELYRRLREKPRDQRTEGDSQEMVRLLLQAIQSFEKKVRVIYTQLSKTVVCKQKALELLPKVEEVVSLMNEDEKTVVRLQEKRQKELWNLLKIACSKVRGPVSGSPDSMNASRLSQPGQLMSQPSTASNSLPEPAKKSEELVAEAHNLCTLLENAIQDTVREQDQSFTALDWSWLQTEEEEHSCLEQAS

[4] = target: T4, Testis-specific serine/threonine-protein kinase 2 (Homo sapiens, UniProt Q96PF2); test: Inhibition of human TSSK2
T4 sequence (Q96PF2 whole entry): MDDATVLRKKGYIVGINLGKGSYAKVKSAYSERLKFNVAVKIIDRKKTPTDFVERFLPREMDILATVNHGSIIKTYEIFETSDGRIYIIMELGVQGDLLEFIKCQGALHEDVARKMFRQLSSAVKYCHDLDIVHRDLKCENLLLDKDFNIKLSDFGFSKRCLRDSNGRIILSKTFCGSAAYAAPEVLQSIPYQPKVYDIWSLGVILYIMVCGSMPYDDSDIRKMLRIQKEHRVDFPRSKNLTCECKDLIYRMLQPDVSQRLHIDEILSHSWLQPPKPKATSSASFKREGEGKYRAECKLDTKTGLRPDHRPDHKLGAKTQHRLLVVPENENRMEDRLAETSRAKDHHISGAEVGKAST

[5] = target: Insulin-like growth factor 1 receptor (Homo sapiens, UniProt P08069); test: Inhibition of human IGF1R
[6] = target: Tyrosine-protein kinase Lck (Homo sapiens, UniProt P06239); test: Inhibition of human LCK
[7] = target: RAC-alpha serine/threonine-protein kinase (Homo sapiens, UniProt P31749); test: Inhibition of human AKT1
[8] = target: Casein kinase I isoform delta (Homo sapiens, UniProt P48730); test: Inhibition of human CSNK1D
[9] = target: Hepatocyte growth factor receptor (Homo sapiens, UniProt P08581); test: Inhibition of human MET
[10] = target: Tyrosine-protein kinase JAK2 (Homo sapiens, UniProt O60674); test: Inhibition of human JAK2
[11] = target: Mitogen-activated protein kinase 1 (Homo sapiens, UniProt P28482); test: Inhibition of human ERK2
[12] = target: T2, MAP kinase-activated protein kinase 2; test: Inhibition of human recombinant MK2 at 10 uM
Target sequence in this assay (P49137 whole entry, looked up): as the sequence (P49137 whole entry) above

Sequence of Tyrosine-protein kinase JAK2 (O60674 whole entry): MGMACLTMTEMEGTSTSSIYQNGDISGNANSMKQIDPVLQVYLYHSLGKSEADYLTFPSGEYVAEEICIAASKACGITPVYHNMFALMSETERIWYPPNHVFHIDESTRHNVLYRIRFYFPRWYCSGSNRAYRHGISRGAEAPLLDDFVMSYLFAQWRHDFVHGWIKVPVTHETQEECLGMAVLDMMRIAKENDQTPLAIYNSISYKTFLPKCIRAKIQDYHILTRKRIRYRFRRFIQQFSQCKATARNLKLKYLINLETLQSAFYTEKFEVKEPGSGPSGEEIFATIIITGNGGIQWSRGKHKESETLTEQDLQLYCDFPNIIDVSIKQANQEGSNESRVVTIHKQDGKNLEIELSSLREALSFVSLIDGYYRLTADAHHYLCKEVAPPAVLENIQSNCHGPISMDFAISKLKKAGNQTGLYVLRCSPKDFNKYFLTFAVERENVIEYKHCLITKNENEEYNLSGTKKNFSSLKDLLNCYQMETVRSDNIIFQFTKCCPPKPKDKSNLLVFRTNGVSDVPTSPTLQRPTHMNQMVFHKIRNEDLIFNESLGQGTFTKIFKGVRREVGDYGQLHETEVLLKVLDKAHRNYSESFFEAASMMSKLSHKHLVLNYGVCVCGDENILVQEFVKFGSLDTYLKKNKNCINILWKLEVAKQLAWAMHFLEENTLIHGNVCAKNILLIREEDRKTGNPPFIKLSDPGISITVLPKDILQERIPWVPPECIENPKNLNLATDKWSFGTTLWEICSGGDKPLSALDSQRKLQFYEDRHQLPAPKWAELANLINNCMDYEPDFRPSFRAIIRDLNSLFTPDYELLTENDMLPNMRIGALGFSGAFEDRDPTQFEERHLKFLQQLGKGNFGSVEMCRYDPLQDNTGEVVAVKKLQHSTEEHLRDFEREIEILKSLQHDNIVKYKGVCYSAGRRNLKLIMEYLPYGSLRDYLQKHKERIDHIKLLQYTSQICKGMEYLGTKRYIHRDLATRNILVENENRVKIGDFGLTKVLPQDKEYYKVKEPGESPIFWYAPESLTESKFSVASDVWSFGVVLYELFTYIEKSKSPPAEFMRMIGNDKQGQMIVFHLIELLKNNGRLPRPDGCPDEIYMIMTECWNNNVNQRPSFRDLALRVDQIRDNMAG
Sequence of Insulin-like growth factor 1 receptor (P08069 31-736 limits assumed): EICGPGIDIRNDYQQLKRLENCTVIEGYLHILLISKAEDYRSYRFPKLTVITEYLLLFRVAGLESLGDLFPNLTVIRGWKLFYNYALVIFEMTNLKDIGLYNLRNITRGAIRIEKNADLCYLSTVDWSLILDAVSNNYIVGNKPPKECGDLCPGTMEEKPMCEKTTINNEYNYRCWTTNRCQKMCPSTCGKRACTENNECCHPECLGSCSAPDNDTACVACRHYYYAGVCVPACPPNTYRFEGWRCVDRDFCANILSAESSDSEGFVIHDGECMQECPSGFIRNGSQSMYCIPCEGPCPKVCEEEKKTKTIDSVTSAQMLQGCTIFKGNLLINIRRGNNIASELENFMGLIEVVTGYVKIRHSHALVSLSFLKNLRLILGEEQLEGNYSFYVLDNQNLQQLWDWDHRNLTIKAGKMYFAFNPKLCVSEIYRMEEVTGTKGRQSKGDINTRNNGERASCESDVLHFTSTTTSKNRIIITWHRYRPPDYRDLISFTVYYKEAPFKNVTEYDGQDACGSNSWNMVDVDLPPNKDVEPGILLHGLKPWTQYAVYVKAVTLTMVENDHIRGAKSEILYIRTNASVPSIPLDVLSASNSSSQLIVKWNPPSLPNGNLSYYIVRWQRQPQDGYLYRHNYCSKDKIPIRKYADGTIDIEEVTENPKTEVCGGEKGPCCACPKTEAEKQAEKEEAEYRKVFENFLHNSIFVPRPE
Sequence of Insulin-like growth factor 1 receptor (P08069 741-1367 limits assumed): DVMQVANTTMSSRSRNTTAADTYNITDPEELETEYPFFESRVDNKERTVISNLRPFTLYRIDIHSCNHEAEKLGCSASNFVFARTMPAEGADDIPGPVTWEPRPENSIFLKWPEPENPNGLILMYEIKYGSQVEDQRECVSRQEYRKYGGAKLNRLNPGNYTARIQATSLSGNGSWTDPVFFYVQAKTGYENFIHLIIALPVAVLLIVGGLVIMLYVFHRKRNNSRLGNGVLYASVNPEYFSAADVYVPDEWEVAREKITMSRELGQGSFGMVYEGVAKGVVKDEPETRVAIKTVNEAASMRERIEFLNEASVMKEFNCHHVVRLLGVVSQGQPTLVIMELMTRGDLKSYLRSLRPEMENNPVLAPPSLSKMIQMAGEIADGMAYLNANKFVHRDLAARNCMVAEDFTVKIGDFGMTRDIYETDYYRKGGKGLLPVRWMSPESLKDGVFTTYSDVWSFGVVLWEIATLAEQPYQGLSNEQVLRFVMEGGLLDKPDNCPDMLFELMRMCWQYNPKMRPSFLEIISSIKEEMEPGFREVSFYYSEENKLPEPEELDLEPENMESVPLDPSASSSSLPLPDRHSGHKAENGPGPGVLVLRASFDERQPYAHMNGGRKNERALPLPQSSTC
Sequence of Hepatocyte growth factor receptor (P08581 whole entry): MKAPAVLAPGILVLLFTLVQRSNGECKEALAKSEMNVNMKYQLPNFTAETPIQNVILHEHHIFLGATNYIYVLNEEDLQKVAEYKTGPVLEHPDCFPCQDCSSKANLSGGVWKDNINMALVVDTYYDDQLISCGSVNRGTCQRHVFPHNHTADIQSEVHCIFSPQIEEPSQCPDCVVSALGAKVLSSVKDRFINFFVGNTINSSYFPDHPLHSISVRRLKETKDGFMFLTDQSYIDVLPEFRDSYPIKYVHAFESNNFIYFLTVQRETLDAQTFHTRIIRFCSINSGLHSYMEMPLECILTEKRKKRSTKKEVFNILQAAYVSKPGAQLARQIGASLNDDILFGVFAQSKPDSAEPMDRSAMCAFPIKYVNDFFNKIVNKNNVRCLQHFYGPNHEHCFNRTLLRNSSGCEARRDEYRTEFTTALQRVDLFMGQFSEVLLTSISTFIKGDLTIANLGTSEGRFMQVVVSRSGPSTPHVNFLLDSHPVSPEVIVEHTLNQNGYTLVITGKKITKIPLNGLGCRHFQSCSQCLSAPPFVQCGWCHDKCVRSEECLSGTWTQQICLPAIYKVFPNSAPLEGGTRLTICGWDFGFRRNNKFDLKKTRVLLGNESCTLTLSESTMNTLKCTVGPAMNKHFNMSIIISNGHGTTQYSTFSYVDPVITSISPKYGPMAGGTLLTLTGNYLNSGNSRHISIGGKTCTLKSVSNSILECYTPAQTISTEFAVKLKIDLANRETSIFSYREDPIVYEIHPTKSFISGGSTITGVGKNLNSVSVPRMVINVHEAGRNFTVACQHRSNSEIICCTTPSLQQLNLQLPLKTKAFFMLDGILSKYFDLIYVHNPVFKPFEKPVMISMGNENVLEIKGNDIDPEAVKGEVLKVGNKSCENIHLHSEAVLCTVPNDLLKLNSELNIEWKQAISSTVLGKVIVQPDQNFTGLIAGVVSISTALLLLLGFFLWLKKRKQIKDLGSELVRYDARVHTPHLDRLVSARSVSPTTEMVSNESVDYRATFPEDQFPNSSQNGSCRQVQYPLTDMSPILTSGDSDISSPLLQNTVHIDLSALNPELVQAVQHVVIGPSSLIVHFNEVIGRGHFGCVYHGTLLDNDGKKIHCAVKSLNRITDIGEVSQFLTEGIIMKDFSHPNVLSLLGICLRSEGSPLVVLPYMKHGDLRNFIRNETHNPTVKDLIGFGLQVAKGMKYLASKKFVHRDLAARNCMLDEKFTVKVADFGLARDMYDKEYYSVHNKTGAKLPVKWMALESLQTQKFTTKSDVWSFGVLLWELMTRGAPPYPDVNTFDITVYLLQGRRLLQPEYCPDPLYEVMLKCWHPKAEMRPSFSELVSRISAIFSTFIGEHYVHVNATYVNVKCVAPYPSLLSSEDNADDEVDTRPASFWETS
Sequence of RAC-alpha serine/threonine-protein kinase (P31749 whole entry, canonical isoform): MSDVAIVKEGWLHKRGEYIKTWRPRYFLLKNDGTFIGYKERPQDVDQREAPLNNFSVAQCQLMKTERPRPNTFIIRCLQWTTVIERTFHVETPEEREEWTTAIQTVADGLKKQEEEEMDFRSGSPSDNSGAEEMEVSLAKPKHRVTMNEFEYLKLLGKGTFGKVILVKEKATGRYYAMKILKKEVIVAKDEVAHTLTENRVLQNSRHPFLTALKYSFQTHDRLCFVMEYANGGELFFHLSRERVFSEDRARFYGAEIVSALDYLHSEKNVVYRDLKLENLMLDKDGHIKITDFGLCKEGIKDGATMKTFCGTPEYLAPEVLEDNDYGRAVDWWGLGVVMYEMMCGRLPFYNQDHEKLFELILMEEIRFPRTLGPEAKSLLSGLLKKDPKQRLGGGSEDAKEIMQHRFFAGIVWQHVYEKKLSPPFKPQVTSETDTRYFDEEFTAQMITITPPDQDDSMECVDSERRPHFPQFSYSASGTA

SMILES | IC50 [1] | IC50 [2] | further results
NCCCNc1ncc(C(N)=O)n2cc(-c3ccc(Cl)cc3)nc12 | 0.29 µM | 4.09 µM | 
CN[C@H]1CC[C@H](Nc2ncc(C(N)=O)n3cc(-c4ccc(Cl)cc4)nc23)CC1 | 0.89 µM | 0.4 µM | 
NC(=O)c1cnc(N[C@H]2CC[C@H](N)CC2)c2nc(-c3ccc(Cl)cc3)cn12 |  |  | IC50 [3]: > 30 µM; IC50 [4]: 12 µM; IC50 [5]: 12 µM; IC50 [6]: 1 µM; IC50 [7]: > 30 µM; IC50 [8]: 12 µM; IC50 [9]: > 30 µM; IC50 [10]: 13 µM; IC50 [11]: > 30 µM
NC(=O)c1ncc(N[C@H]2CCCNC2)c2nc(-c3ccc(Cl)cc3)cn12 | 0.018 µM | 0.84 µM | 
NC(=O)c1cnc(N[C@H]2CC[C@H](N)CC2)c2nc(-c3ccc(Cl)c(Cl)c3)cn12 | 5.07 µM | 0.82 µM | 
NC(=O)c1cnc(N[C@H]2CCCNC2)c2nc(-c3ccc4ccccc4c3)cn12 | 0.023 µM | 0.91 µM | 
NC(=O)c1cnc(NCC2CCCNC2)n2cc(-c3ccc(Cl)cc3)nc12 (stereo not given) | 50 µM |  | inhibition [12]: 61%
NC(=O)c1cnc(NC2CCNCC2)c2nc(-c3ccc(Cl)cc3)cn12 | 0.69 µM | 4.15 µM | 
NC(=O)c1cnc(Nc2cccnc2)c2nc(-c3ccc(Cl)cc3)cn12 |  | 10 µM | 
NC(=O)c1cnc(N[C@H]2CCCNC2)c2nc(-c3ccc(F)cc3)cn12 | 0.027 µM | 0.91 µM | 
NC(=O)c1cnc(N[C@H]2CCCNC2)n2cc(-c3ccc(Cl)cc3)nc12 |  |  | inhibition [12]: 67%

Continued, in another order:

IC50 [1] | IC50 [2] | SMILES | further results
50 µM |  | CN1CCC(Nc2ncc(C(N)=O)c3nc(-c4ccc(Cl)cc4)cn23)CC1 | inhibition [12]: 69%
50 µM | 4 µM | NC(=O)c1cnc(N[C@H]2CC[C@H](N)CC2)n2cc(-c3ccc(Cl)cc3)nc12 | 
 | 1.9 µM | NC(=O)c1cnc(N[C@H]2CC[C@@H](N)CC2)c2nc(-c3ccc(Cl)cc3)cn12 | 
 | 1.98 µM | NC(=O)c1ncc(N[C@H]2CC[C@H](N)CC2)c2nc(-c3ccc(Cl)cc3)cn12 | 
42.1 µM |  | NC(=O)c1cnc(N[C@@H]2CCNC2)n2cc(-c3ccc(Cl)cc3)nc12 | inhibition [12]: 56%
